The source of these data is patent publication US12600740B2, “Fluorinated N-acetyl glucosamine analogs and xylose derivatives” (UTI Limited Partnership, priority 2018, dated 2026).

Data set [1] relates to splenocytes. In words: Splenocyte thymidine proliferation assay (anti-CD3/anti-CD28). Type of data set: cell-based, mouse. To be noted: for splenocyte proliferation: 25 μM, 48 hours; for Reduce T cell proliferation: activated splenocytes, significance class. The procedure: It was assessed whether the glucosamine analogs have immunomodulatory properties on splenocytes isolated in culture. T cells within the splenocyte pool were polyclonally activated with anti-CD3 and anti-CD28 antibodies in the presence of compounds for 48 hours, and proliferation was determined by the uptake of tritiated thymidine and expressed as counts per minute. The relative change in proliferation of treated versus control splenocytes was taken in order to rank the compounds across multiple independent experiments (FIG. 8a).
The spleens were isolated from 8-10-week-old female C57BL/6 mice and homogenized. The cells were isolated by Ficoll gradient and spun for 30 min at 1,800 r.p.m. The cell suspension was removed and the cells were washed once with PBS. The cell pellet was subsequently re-suspended in Roswell Park Memorial Institute media containing 10% fetal bovine serum, 1% penicillin/streptomycin, 1% sodium pyruvate and 1% L-glutamine. Trypan blue exclusion was used to count live cells, and the cells were plated at 2.5×10^5 cells per well in a round-bottom 96-well plate and activated with 1,000 ng/ml plate-bound anti-CD3 and 1,000 ng/ml anti-CD28 suspended in media to preferentially activate T lymphocytes. Compounds were added at final concentrations of 25 μM. The cells were kept at 37° C. and 5% CO2 for 30 h, after which 10 μl/well (1 μCi per well) of 3H-thymidine was added for 18 h. The cells containing thymidine were harvested onto filter mats using a cell harvester and mats were allowed to dry for 24 h. The results were read by liquid scintillation counts.

Data set [2] has as its system human neurons. Kind of data set: Human neuron ATP luminescence assay. Type of data set: cell-based. To be noted: 100 μM. The procedure:
If the sugar compounds are to be used in neurological disorders, they should not display toxicity to neural cells. Thus, human neurons were used to test the compounds, and the ATP luminescence assay as a readout of metabolic stress and a surrogate of toxicity. Compounds were tested at a high dose of 100 μM. […] Two compounds that reduced ATP production by more than 50% were the 4-fluorinated hemiacetals that respectively bear O3,O6-diacetates 10 (Ac-4-F-GlcNAcOH) and O3,O6-dipropanoates 11 (Pr-4-F-GlcNAcOH), with the former displaying higher cytotoxicity than the latter (FIG. 6d).
Human fetal neurons were plated at 10×10^4 cells/well in 96 well plates as previously described [Vecil, G. G. et al. Interleukin-1 is a key regulator of matrix metalloproteinase-9 expression in human neurons in culture and following mouse brain trauma in vivo. Journal of Neuroscience Research 61, 212-224 (2000)]. After 24 hours neurons were treated with 100 μM compounds and incubated for 24 hours. The ATP assay (CellTiter-Glo Luminescent Cell Viability Assay; Promega, Madison, WI, USA) was then performed to test for toxicity according to manufacturer's instructions.

Data set [3] concerns CD3+ T cells. Kind of data set: Annexin V/propidium iodide staining. Type of data set: cell-based. The note with it: for necrotic, apoptotic, dead or live cells (Annexin V/PI): isolated CD3+ T cells, 25 μM and 50 μM; for cell death on splenocytes: propidium iodide/annexin V staining or cell cycle analysis. From the text:
Cell-cycle flow cytometry with propidium iodide was used to corroborate the above results, and ensure the reduction in proliferation was not due to cell death. […] To further investigate whether the reduction of proliferation was due to cell death, Annexin V and propidium iodide staining were used to differentiate necrotic cells (propidium iodide+), apoptotic cells (annexin V+), dead cells (propidium iodide+ and annexin V+), and live cells (propidium iodide-annexin V−).
Cell cycle staining with propidium iodide (PI) and analysis by flow cytometry gives percentage of cells in apoptosis, G1, G2, and synthesis, and apoptosis. Following a membrane permeabilization, PI chelates to DNA and level of staining specifies the stage of the cell cycle (e.g., G2 phase will have twice the DNA and thus twice the PI signal as G1 phase, apoptotic cells contain less DNA than healthy cells and are identified by low PI staining). 1×10^6 splenocytes were used per sample, with four replicates per condition. Cells were collected into a tube with PBS and centrifuged (200 r.p.m. for 5 minutes). Pellet was resuspended in 500 μl PBS and 500 μl ice cold 100% ethanol was slowly added with gentle vortexing of sample. Cell suspension was stored at 4° C. for at least 2 hours (up to two weeks). Next, the suspension was centrifuged at 200 r.p.m. for 3 minutes, pellet was resuspended in PBS and suspension was centrifuged at 200 r.p.m for 10 minutes at 4° C. Pellet was resuspended in 350 μl of PI staining buffer (50 μg/ml propidium iodide, 0.1% TritonX100, 0.2 mg Dnase free Rnase A in PBS) and incubated for 30-45 minutes at room temperature. Suspension was transferred to a FACs tube and analyzed. Annexin V/Propidium iodide staining was detected using the Annexin V FITC apoptosis detection kit (BD Biosciences, #556547), which was performed according to manufacturer's instructions.

Data set [4] concerns TNFα. Kind of data set: TNFα ELISA of LPS-stimulated bone marrow-derived macrophages. Type of data set: cell-based, mouse. The note with it: BMDMs, 50 μM, LPS 100 ng/ml, 24 hours. Here is the method:
Multiple Sclerosis: Mechanisms and Immunotherapy. Neuron 97, 742-768 (2018)]. It was tested whether the sugar analogs could affect the activity of macrophages, using bone marrow-derived macrophages (BMDMs) stimulated with lipopolysaccharide (LPS, 100 ng/ml). The sugar analogs were added at 50 μM prior to LPS, and the conditioned medium was collected after 24 hours and assayed for levels of the secreted cytokine TNFα. […] Testing Toxicity of Sugar Analogs
Femurs were carefully removed from euthanized female C57BI/6 mice, and marrow was flushed into a culture plate with cold complete bone marrow growth medium (DMEM, 10% fetal bovine serum, and the supplements 1% penicillin/streptomycin, 1% glutamine, 1% non-essential amino acids, and 10% supernatant from L929 cell-line enriched in macrophage-colony stimulating factor). Cells were spun at 1100 rpm for 10 minutes, resuspended in fresh growth medium and plated at 10×10^6 cells/ml in a 10 cm culture dish. Cells were grown in DMEM with supplements and L929 supernatant for 5 days, then half the medium was replaced with fresh growth medium. On day 7 growth medium was replaced with DMEM with 10% FBS and supplements. Cells were used on day 8, and experiments were conducted in DMEM with 1% FBS and supplements unless otherwise specified.
BMDM were plated at 25,000 cells in 96-well plates in DMEM+L929 media. After 24 hours media was changed to DMEM+1% FBS. One hour later, cells were treated with […] compounds or PBS. After 1 hour LPS (final concentration 100 ng/ml) was added. Following 24 hours, conditioned media was harvested for TNFα ELISA (Thermo Scientific), which was performed according to manufacturer's instructions.
A general note: ELISA stands for enzyme-linked immunosorbent assay.

For data set [5], the system named is EAE mice. In words: Experimental autoimmune encephalomyelitis (EAE) clinical score. The format is in vivo, mouse.
The mark [6] stands for this setting: 50 mg/kg intraperitoneal daily, day 7 to day 15.

“Also recorded” adds a separate entry of the source.

In the case of `CCCC(=O)OC[C@H]1OC(O)[C@H](NC(C)=O)[C@@H](OC(=O)CCC)[C@@H]1F` (stereo partly drawn) [Compound 12, 2-Acetamido-3,6-di-O-butanoyl-2,4-dideoxy-4-fluoro-α/β-3-D-glucopyranose], in data set [1], the splenocyte proliferation entry is on record as “reduced splenocyte proliferation” and the “Reduce T cell proliferation” value is listed as “** (**p < 0.01)”. The cytotoxicity on neurons entry in data set [2] is “showed no cytotoxicity”.
Take `CC(=O)N[C@H]1[C@H](OC(C)=O)O[C@H](COC(C)=O)[C@@H](OC(C)=O)[C@@H]1OC(C)=O` [Compound 1, reference compound]: in data set [1], the splenocyte proliferation result is listed as “reduced splenocyte proliferation” and the “Reduce T cell proliferation” value is “**** (****p < 0.0001)”.
On to `CC(=O)NC1C(OC(C)=O)OC(COC(C)=O)[C@@H](F)C1OC(C)=O` (stereo partly shown) [Compound 3, reference compound], for which, in data set [3], the “necrotic, apoptotic, dead or live cells (Annexin V/PI)” value is on record as “no evidence of causing non-specific cell apoptosis or necrosis; also recorded: did not display notable changes in their proportion of necrotic, apoptotic, dead, or live cells” and the “cell death on splenocytes” value is reported as “did not show detectable cell death”. Further, in data set [1], the “Reduce T cell proliferation” value was “**** (****p < 0.0001)”. The “TNFα production by LPS-stimulated macrophages” value (from here on “TNFα production”) in data set [4] is “did not alter cytokine level of activated macrophages”.
Regarding `CCCC(=O)OC1OC(COC(C)=O)[C@@H](F)[C@H](OC(C)=O)C1NC(C)=O` (mixture of isomers) [Compound 8, 2-Acetamido-3,6-di-O-acetyl-1-O-butanoyl-2,4-dideoxy-4-fluoro-α/β-D-glucopyranose], the “cell death on splenocytes” value in data set [3] is “did not show detectable cell death”.
Consider `CC(=O)NC1C(O)OC(COC(C)=O)[C@@H](F)[C@@H]1OC(C)=O` (mixture of isomers) [Compound 10], for which the “cell death on splenocytes” value in data set [3] is recorded as “did not show detectable cell death”. Also, the EAE clinical score result in data set [5] (setting [6]) was “did not reduce EAE clinical score; also recorded: no significant improvement in EAE clinical score”. Further, in data set [2], the cytotoxicity on neurons entry is recorded as “showed evidence of toxicity on neurons”. In addition, in data set [4], the “TNFα production” value was “enhanced TNFα levels”.
Consider `CC(=O)NC1C(OC(C)=O)OC(COC(C)=O)C(F)(F)[C@@H]1OC(C)=O` (mixture of isomers) [Compound 16, 2-Acetamido-1,3,6-tri-O-acetyl-2,4-dideoxy-4,4-difluoro-α/β-D-xylo-hexopyranose], for which the “necrotic, apoptotic, dead or live cells (Annexin V/PI)” value in data set [3] is recorded as “no evidence of causing non-specific cell apoptosis or necrosis; also recorded: did not display notable changes in their proportion of necrotic, apoptotic, dead, or live cells”. The “cell death on splenocytes” value in data set [3] was “did not show detectable cell death”. Besides, the EAE clinical score entry in data set [5] (25 mg/kg daily from peak clinical severity (day 15)) was “significantly reduced EAE clinical severity; also recorded: did not significantly improve disability until nine days after treatment”; in data set [5] (25 mg/kg intraperitoneal daily, day 7 to day 15 (pre-onset)), “significantly lower EAE clinical scores than the control group”; in data set [5] (setting [6]) it was “pronounced reduction in EAE clinical severity beyond that seen for the mono-fluorinated Ac-4-F-GlcNAc”. In data set [5] (25 mg/kg intraperitoneal daily, day 7 to day 15), the “sum of scores (burden of disease)” value is recorded as “significantly reduced”. In addition, the cytotoxicity on neurons entry in data set [2] was “no signs of toxicity in neurons”. The “TNFα production” value in data set [4] is “did not alter cytokine level of activated macrophages”.
